How the values were obtained:
Format in all cases: cell-based
SPARC mRNA = SPARC mRNA level in NHL cells by real-time RT-PCR; conditions: sensitive NHL cells; 24 hours of incubation; 10 μM; FIG. 2
Description: The effect of the administration of 3-(2,5-dimethyl-4-oxo-4H-quinazolin-3-yl)-piperidine-2,6-dione in various NHL cells was measured after 24 hours of incubation, using real-time RT-PCR (FIG. 2).
The following exemplary procedures can be used. Upon purification of total RNA, real-time PCR is performed with 100 ng of total RNA, using an Applied Biosystems 7500 instrument (Applied Biosystems, Foster City, Calif.) using TaqMan Sequence Detection chemistry which uses a fluorogenic probe (FAM) to enable the detection of a specific PCR product as it accumulates during PCR. Samples are prepared in triplicate in 50 μl reaction volumes. […]
TaqMan® Gene Expression Assays are pre-formulated gene expression assays for rapid, reliable detection and quantification of human, mouse and rat mRNA transcripts. […] Data is analyzed using 7500 Real-Time PCR System Sequence Detection software v1.3 using the comparative CT relative quantification calculation method. The output is expressed as a fold-change of expression levels. The threshold level is selected to be automatically determined by the software and is set to be above the baseline but sufficiently low to be within the exponential growth region of an amplification curve. The cycle number at which the fluorescence signal associated with a particular amplicon accumulation crosses the threshold is referred to as the CT.

DB cell line = experiment: NHL cell proliferation by 3H-thymidine incorporation assay, DB cell line; conditions: DB cells with t(14;18)
Description: (§1) NHL cell proliferation was assessed by 3H-thymidine incorporation assay. Briefly, cells were cultured in 96 well cell culture plates in complete RPMI-1640 medium in the presence and absence of drugs. Following incubation at 37° C. for 3 days, 1μCi 3H-thymidine was added to each well for the last 5 hours of incubation. The 3H incorporation of each well was then measured. The six tested cell lines were Namalwa, Rec-1, Jeko-1, Granta-519, JVM-2, and DB.
Thus t(14;18) may be a negative prognostic factor in predicting clinical response to 3-(2,5-dimethyl-4-oxo-4H-quinazolin-3-yl)-piperidine-2,6-dione. Thus, SPARC gene expression can be used as a biomarker of NHL or MCL tumor response to quinazolinone compounds such as 3-(2,5-dimethyl-4-oxo-4H-quinazolin-3-yl)-piperidine-2,6-dione.

[1] = tested on: NHL cell lines (Namalwa, Rec-1, Jeko-1, Granta-519, JVM-2, DB); experiment: NHL cell proliferation by 3H-thymidine incorporation assay
Description: As detailed below, the effect of the administration of a quinazolinone compound on several types of NHL cells was determined after 3 days using 3H-thymidine incorporation, microbead array technology and real time PCR.
To better understand how the effectiveness of quinazolinone compound administration varies among different cancer cell types, the quinazolinone compound 3-(2,5-dimethyl-4-oxo-4H-quinazolin-3-yl)-piperidine-2,6-dione was tested in vitro for its anti-proliferative effect in several NHL cell lines after 3 days of treatment.
as §1

SMILES	expression of SPARC mRNA (SPARC mRNA)	response of DB cell line (rate of cell proliferation) (DB cell line)	anti-proliferative activity against NHL cells ([1]; 3 days of treatment, 0.01, 0.1, 1, 10 and 100 μM, FIG. 1)	dose dependence of the anti-proliferative effect ([1]; ranges tested 0, 0.01, 0.1, 1, 10 and 100 μM, especially in MCL cell lines)	order of sensitivity of the various NHL cell lines [1]
Cc1cccc2nc(C)n(C3CCC(=O)NC3=O)c(=O)c12 (centres unmarked) [3-(2,5-dimethyl-4-oxo-4H-quinazolin-3-yl)-piperidine-2,6-dione]	increased the expression of SPARC mRNA	increased rate of cell proliferation	demonstrated anti-proliferative activity	dose dependent	–
Nc1cccc2c1CN(C1CCC(=O)NC1=O)C2=O (centres unmarked) [1-oxo-2-(2,6-dioxopiperidin-3-yl)-4-aminoisoindoline, reference compound]	–	–	–	–	Namalwa (Burkitt's lymphoma)>Jeko-1>Rec-1>JVM-2>Granta-519 (all Mantle Cell Lymphomas, MCL)>DB

Source: patent US20110111396A1, “BIOMARKERS FOR MONITORING THE TREATMENT BY QUINAZOLINONE COMPOUNDS” (priority 2007, published 2011)
